The values that follow come from patent US20230355613A1, “METHODS FOR TREATING PANCREATIC DUCTAL ADENOCARCINOMA” (HEALTH RESEARCH, INC., priority 2022, published 2023).

As a reminder, the IC50 is the point on the concentration scale where inhibition reaches its midpoint. Low readings indicate greater potency in that assay, high ones weaker potency in that assay.

The test system of data set [1] is C-reactive protein, IL-10 and IL-1ra. The following applies: in humans; cited from earlier work.
The conditions of data set [2]: healthy human volunteers; cited from earlier work.
The next data set has as its system PancPat CAFs. Kind of data set: 72-hour dose-response cell viability assay (CellTiter-Glo). The class given is cell-based. The following applies: Fibroblast, PancPat CAFs human cancer associated fibroblasts. The source says: (§1) PDAC cells are sensitive to chemical inhibition of CPSF3. CPSF3 was recently identified as the target for the small molecule JTE-607. JTE-607 is a prodrug that, when metabolized by the ester hydrolyzing enzyme carboxylesterase 1 (CES1), binds to CPSF3 and inhibits its catalytic activity, impairing the processing of newly synthesized mRNAs. As genetic depletion of CPSF3 attenuated PDAC cell proliferation (FIG. 1), it 2as hypothesized that pharmacologic inhibition of CPSF3 with JTE-607 could represent a novel therapeutic approach in PDAC. The sensitivity of multiple human pancreatic cell lines, both non-transformed and PDAC, to JTE-607 in a 72-hour dose-response cell viability assay was examined. […] To examine if sensitivity to CPSF3 inhibition was associated with proliferation rate, the relationship between cell line doubling time and JTE-607 sensitivity was assessed. […] Next, the effect of JTE-607 on cell proliferation by treating cells with increasing concentrations of JTE-607 and assessing cell viability in a time-dependent fashion (FIGS. 2C-2E) was determined. […] Finally, the effect of JTE-607 on colony formation in PDAC cell lines was tested. […] Therefore, JTE-607 selectively attenuates proliferation of PDAC cells over non-transformed pancreatic cells.
(§2) JTE-607 studies. For dose-response measurements, cells were seeded at a density of 1000 cells per well in a 96-well white plate. The next day, JTE-607 was titrated over a range of concentrations using the Tecan D300e Digital Dispenser and cell viability was measured 72 hours post drug titration using a CellTiter-Glo Luminescent Cell Viability Assay Kit (Promega). For cell proliferation experiments, cells were seeded at a density of 250 cells per well in a 96-well white plate. DMSO control or JTE-607 was dispensed at varying concentrations and proliferation was measured using CellTiter-Glo Assay at days 0, 2, 4 and 6. For clonogenicity experiments, cells were seeded at a concentration of 500 cells per well and treated with different concentrations of JTE-607. Cells were allowed to grow over a period of 11-14 days after which they were fixed in 10% formalin, stained with 0.2% Crystal Violet and images were obtained for analysis. Colony area was measured using ImageJ software. Data were normalized to DMSO control data points.
(In general: In ATP-based viability assays light output follows the ATP content of the culture.)

Data set [3] deals with HPNE cells. Described as above. The class given is cell-based. As to conditions: Homo sapiens, HPNE non-transformed pancreatic epithelial cells.
Source text: as §1, §2

In a further data set the test system is C7 CAF. The data set is described as above. The class given is cell-based. As to conditions: Fibroblast, C7 CAF human cancer associated fibroblasts.
Source text: as §1, §2

Data set [4] relates to Panc1 cells. The description is as above. The class given is cell-based. The following applies: Homo sapiens, PANC-1, Panc1 PDAC cells.
Source text: as §1, §2

For the next data set, the system named is HPDE cells. Described as above. Type of data set: cell-based. The following applies: Homo sapiens, HPDE non-transformed pancreatic epithelial cells.
Source text: as §1, §2

The test system of data set [5] is MiaPaCa2 cells. Kind of data set: mRNA expression of RD histones (H2B, H3) by qPCR. The class given is cell-based, human. The source says:
(C) Heatmap of top differentially expressed genes upon JTE-607 treatment. Replication-dependent histones are colored in blue. Expression is plotted as transformed expression value. (D) mRNA expression of H2B and H3 in MiaPaCa2 cells treated with JTE-607. *, P<0.05, **, P<0.01, ***, P<0.001, Ordinary one-way ANOVA with Dunnett's multiple comparisons test. (E) DSeq2 normalized counts of H3F3A and H2AZ1 histone variants (replication-independent) in Panc1 cells treated with JTE-607. […]. (F-H) Volcano plots of Spearman's correlation of CPSF3 and all histone genes (F), replication-dependent histone genes (G) and replication-independent histone genes (H). Each dot represents a histone gene. Blue and red dots denote positive and negative correlation, respectively. (Spearman=−0.15>R>0.15, P<0.05).
As JTE-607 has been previously administered to patients with no cytotoxic effects, we wanted to determine the mechanism underlying the ability of JTE-607 to attenuate PDAC cell proliferation. […] The Spearman's correlation for CPSF3 and 98 histone genes from the CPTAC database (Spearman=−0.15>R>0.15, P<0.05) (FIG. 4F) were calculated. […] A signature by selecting 50 RD histones and assessed PDAC patient survival based on gene expression was generated.
RNA isolation and quantitative PCR. […] Data were analyzed in Microsoft Excel and graphed using GraphPad Prism (v 9.3.0).

Data set [6] relates to HPNE cells. Kind of data set: Cell proliferation time course (CellTiter-Glo, days 0, 2, 4, 6). The class given is cell-based, human. The following applies: increasing concentrations, days 0-6.
Source text: as §1
as §2, with “Cells were allowed to grow over a period of 11-14 days after which they were fixed in 10% formalin, stained with 0.2% Crystal Violet and images were obtained for analysis.” left out, “Data were normalized to DMSO control data points.” left out

The subject of data set [7] is Panc1 cells. The description is as above. The following applies: increasing concentrations, days 0-6, dose-dependent. The class given is cell-based, human.
Source text: as §1
as §2, with “Cells were allowed to grow over a period of 11-14 days after which they were fixed in 10% formalin, stained with 0.2% Crystal Violet and images were obtained for analysis.” left out, “Data were normalized to DMSO control data points.” left out

Data set [8] deals with MiaPaCa2 cells. The description is as above. Type of data set: cell-based, human. As to conditions: increasing concentrations, days 0-6, dose-dependent.
Source text: as §1
as §2, with “Cells were allowed to grow over a period of 11-14 days after which they were fixed in 10% formalin, stained with 0.2% Crystal Violet and images were obtained for analysis.” left out, “Data were normalized to DMSO control data points.” left out

For data set [9], the system named is human acute myeloid leukemia (AML) and Ewing's sarcoma cells. The following applies: in vitro; cited from earlier work.

The structures appear in SMILES notation. “Also recorded” adds a separate entry of the source.

As for `CCOC(=O)[C@H](Cc1ccccc1)NC(=O)c1cc(Cl)c(OCCN2CCN(C)CC2)c(Cl)c1O` [JTE-607], the “endotoxin-induced production of C-reactive protein, IL-10 and IL-1ra” value in [1] is given as “inhibited”. Further, in data set [2], the adverse events entry is given as “no serious adverse effects; also recorded: no severe adverse events reported”. Also, the IC50 in the data set with PancPat CAFs is 114 µM; in the data set with HPNE cells [3], 130 µM; with C7 CAF, 70 µM; in the data set on Panc1 cells [4], 2.16 µM; in the data set on HPDE cells, 60.1 µM. Also, the “RD histone mRNA expression (H2B, H3)” value with MiaPaCa2 cells [5] was “decrease”. The effect on proliferation entry is on record as “no effect on proliferation” with HPNE cells [6], “significantly attenuated” in the data set with Panc1 cells [7] and “significantly attenuated” in the data set on MiaPaCa2 cells [8]. In addition, the apoptosis result in data set [9] was “induces apoptosis”.
